Measured values taken from PubChem BioAssay AID248 (DTP/NCI, 2004).
Toxic doses and inconclusive results are not listed. Rule as the data show it: active = T/C of 150% or more; inactive = T/C below 125%.

Test system: L1210 leukemia ip in BDF1 mice, survival T/C
Assay: NCI In Vivo Anticancer Drug Screen. Data for tumor model L1210 Leukemia (intraperitoneal) in B6D2F1 (BDF1) mice
Details: endpoint: mean survival time, higher = longer survival
In short: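 Ratio derived from survival: compound-dosed mice over vehicle-dosed mice, all bearing a transplantable tumor.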

[1] = dose: 100.0 mg/kg/injection, schedule: Q01DX001 (ip), vehicle: carboxymethylcellulose (CMC)
[2] = dose: 200.0 mg/kg/injection, schedule: Q01DX001 (ip), vehicle: carboxymethylcellulose (CMC)
[3] = dose: 400.0 mg/kg/injection, schedule: Q01DX001 (ip), vehicle: carboxymethylcellulose (CMC)
[4] = dose: 50.0 mg/kg/injection, schedule: Q01DX009 (ip), vehicle: saline
[5] = dose: 100.0 mg/kg/injection, schedule: Q01DX009 (ip), vehicle: saline
[6] = dose: 100.0 mg/kg/injection, schedule: Q01DX009 (ip), vehicle: Klucel (hydroxypropylcellulose) (HPC)
[7] = dose: 100.0 mg/kg/injection, schedule: Q04DX003 (ip), vehicle: Klucel (hydroxypropylcellulose) (HPC)
[8] = dose: 200.0 mg/kg/injection, schedule: Q01DX009 (ip), vehicle: Klucel (hydroxypropylcellulose) (HPC)
[9] = dose: 200.0 mg/kg/injection, schedule: Q04DX003 (ip), vehicle: Klucel (hydroxypropylcellulose) (HPC)
[10] = dose: 400.0 mg/kg/injection, schedule: Q01DX009 (ip), vehicle: Klucel (hydroxypropylcellulose) (HPC)
[11] = dose: 400.0 mg/kg/injection, schedule: Q04DX003 (ip), vehicle: Klucel (hydroxypropylcellulose) (HPC)
[12] = dose: 100.0 mg/kg/injection, schedule: Q04DX003 (ip), vehicle: saline with Tween-80
[13] = dose: 200.0 mg/kg/injection, schedule: Q04DX003 (ip), vehicle: saline with Tween-80
[14] = dose: 400.0 mg/kg/injection, schedule: Q04DX003 (ip), vehicle: saline with Tween-80
[15] = dose: 100.0 mg/kg/injection, schedule: Q01DX001 (ip), vehicle: Klucel (hydroxypropylcellulose) (HPC)
[16] = dose: 200.0 mg/kg/injection, schedule: Q01DX001 (ip), vehicle: Klucel (hydroxypropylcellulose) (HPC)
[17] = dose: 100.0 mg/kg/injection, schedule: Q04DX003 (ip), vehicle: saline
[18] = dose: 200.0 mg/kg/injection, schedule: Q01DX009 (ip), vehicle: saline
[19] = dose: 200.0 mg/kg/injection, schedule: Q04DX003 (ip), vehicle: saline
[20] = dose: 400.0 mg/kg/injection, schedule: Q01DX009 (ip), vehicle: saline
[21] = dose: 400.0 mg/kg/injection, schedule: Q04DX003 (ip), vehicle: saline
[22] = dose: 100.0 mg/kg/injection, schedule: Q01DX001 (ip), vehicle: saline
[23] = dose: 200.0 mg/kg/injection, schedule: Q01DX001 (ip), vehicle: saline
[24] = dose: 400.0 mg/kg/injection, schedule: Q01DX001 (ip), vehicle: saline

Measured: T/C

O=[N+]([O-])/C=C/c1ccc(Cl)cc1Cl
inactive: dose: 20.0 mg/kg/injection, schedule: Q01DX009 (ip), vehicle: saline with Tween-80 98 % of control | dose: 20.0 mg/kg/injection, schedule: Q04DX003 (ip), vehicle: saline with Tween-80 90 % of control | dose: 25.0 mg/kg/injection, schedule: Q04DX002 (ip), vehicle: Klucel (hydroxypropylcellulose) (HPC) 106 % of control | dose: 40.0 mg/kg/injection, schedule: Q01DX009 (ip), vehicle: saline with Tween-80 102 % of control | dose: 40.0 mg/kg/injection, schedule: Q04DX003 (ip), vehicle: saline with Tween-80 101 % of control | dose: 50.0 mg/kg/injection, schedule: Q01DX001 (ip), vehicle: carboxymethylcellulose (CMC) 95 % of control | dose: 50.0 mg/kg/injection, schedule: Q04DX002 (ip), vehicle: Klucel (hydroxypropylcellulose) (HPC) 100 % of control | dose: 80.0 mg/kg/injection, schedule: Q04DX003 (ip), vehicle: saline with Tween-80 111 % of control | [1] 98 % of control | [2] 89 % of control | [3] 101 % of control

CC(C)=CCC(C#N)(CCN(C)C)c1ccc2ccccc2c1 (stereo not drawn)
inactive: dose: 25.0 mg/kg/injection, schedule: Q01DX009 (ip), vehicle: saline 95 % of control | [4] 97 % of control | [5] 95 % of control

O=C(NN(c1ccc([N+](=O)[O-])cc1)c1ccc([N+](=O)[O-])cc1)c1ccccc1
inactive: dose: 50.0 mg/kg/injection, schedule: Q01DX009 (ip), vehicle: Klucel (hydroxypropylcellulose) (HPC) 103 % of control | [6] 100 % of control | [7] 94 % of control | [8] 102 % of control | [9] 93 % of control | [10] 102 % of control | [11] 94 % of control

COc1ccc(C(=O)NC(=S)Nc2ccc(I)cc2)cc1
inactive: [6] 98 % of control | [7] 89 % of control | [8] 98 % of control | [9] 89 % of control | [10] 91 % of control | [11] 94 % of control

Cc1ccc(S(=O)(=O)N(C)c2ccc(C#N)c(Cl)c2Cl)cc1
inactive: [12] 98 % of control | [13] 96 % of control | [14] 98 % of control

N#CCCCCC(=O)c1ccc(O)cc1O
inactive: dose: 50.0 mg/kg/injection, schedule: Q01DX001 (ip), vehicle: Klucel (hydroxypropylcellulose) (HPC) 97 % of control | [15] 105 % of control | [16] 101 % of control

COc1cc2c(cc1OC)C1c3cc(OC)c(OC)cc3CC(=O)N1CC2 (stereo not drawn)
inactive: [4] 87 % of control | [5] 104 % of control | [17] 100 % of control | [18] 102 % of control | [19] 96 % of control | [20] 98 % of control | [21] 95 % of control

Cc1c(N)nc(Br)c2ccccc12
inactive: [12] 105 % of control | [13] 101 % of control | [14] 110 % of control

O=[N+]([O-])CCCl
inactive: dose: 2.5 mg/kg/injection, schedule: Q04DX003 (ip), vehicle: Klucel (hydroxypropylcellulose) (HPC) 104 % of control | dose: 5.0 mg/kg/injection, schedule: Q01DX009 (ip), vehicle: saline 105 % of control | dose: 5.0 mg/kg/injection, schedule: Q04DX003 (ip), vehicle: Klucel (hydroxypropylcellulose) (HPC) 103 % of control | dose: 10.0 mg/kg/injection, schedule: Q01DX009 (ip), vehicle: saline 106 % of control | dose: 10.0 mg/kg/injection, schedule: Q04DX003 (ip), vehicle: Klucel (hydroxypropylcellulose) (HPC) 95 % of control | dose: 20.0 mg/kg/injection, schedule: Q01DX009 (ip), vehicle: saline 117 % of control | dose: 20.0 mg/kg/injection, schedule: Q04DX003 (ip), vehicle: Klucel (hydroxypropylcellulose) (HPC) 89 % of control

O=P(N1CC1)(N1CC1)N(CCCCN(Cc1ccccc1)P(=O)(N1CC1)N1CC1)Cc1ccccc1
inactive: dose: 10.0 mg/kg/injection, schedule: Q01DX001 (ip), vehicle: carboxymethylcellulose (CMC) 104 % of control | dose: 20.0 mg/kg/injection, schedule: Q01DX001 (ip), vehicle: carboxymethylcellulose (CMC) 101 % of control | dose: 40.0 mg/kg/injection, schedule: Q01DX001 (ip), vehicle: carboxymethylcellulose (CMC) 104 % of control | dose: 80.0 mg/kg/injection, schedule: Q01DX001 (ip), vehicle: carboxymethylcellulose (CMC) 106 % of control | [1] 92 % of control

COc1c2c(cc3c1OCO3)C13CCN(C2)C1CC(OC)C1OC13 (stereo not drawn)
inactive: dose: 5.0 mg/kg/injection, schedule: Q01DX001 (ip), vehicle: other 97 % of control | dose: 10.0 mg/kg/injection, schedule: Q01DX001 (ip), vehicle: other 109 % of control | dose: 20.0 mg/kg/injection, schedule: Q01DX001 (ip), vehicle: other 97 % of control | dose: 40.0 mg/kg/injection, schedule: Q01DX001 (ip), vehicle: other 90 % of control | dose: 80.0 mg/kg/injection, schedule: Q01DX001 (ip), vehicle: other 89 % of control

O=C(c1ccc(Cl)cc1)C(NCCO)c1ccc(Cl)cc1 (stereo not drawn)
inactive: dose: 50.0 mg/kg/injection, schedule: Q01DX001 (ip), vehicle: saline 97 % of control | [22] 101 % of control | [23] 95 % of control | [24] 95 % of control

S=C([S][Sn]([c]1ccccc1)([c]1ccccc1)[c]1ccccc1)N(c1ccccc1)c1ccccc1
inactive: dose: 100.0 mg/kg/injection, schedule: Q01DX001 (ip), vehicle: steriod suspending solution 89 % of control | dose: 200.0 mg/kg/injection, schedule: Q01DX001 (ip), vehicle: steriod suspending solution 98 % of control | dose: 400.0 mg/kg/injection, schedule: Q01DX001 (ip), vehicle: steriod suspending solution 104 % of control

O=C1C2C(Cl)C(Cl)C(Cl)C(Cl)C2C(=O)N1NC1CCC([N+](=O)[O-])CC1[N+](=O)[O-] (stereo not drawn)
inactive: [5] 91 % of control | dose: 100.0 mg/kg/injection, schedule: Q04DX002 (ip), vehicle: saline 92 % of control | [18] 94 % of control | dose: 200.0 mg/kg/injection, schedule: Q04DX002 (ip), vehicle: saline 106 % of control | [20] 98 % of control | dose: 400.0 mg/kg/injection, schedule: Q04DX002 (ip), vehicle: saline 95 % of control

CC(=O)NC(C)(SC(c1ccccc1)c1ccccc1)C(=O)O (stereo not drawn)
inactive: [15] 100 % of control | [16] 100 % of control | dose: 400.0 mg/kg/injection, schedule: Q01DX001 (ip), vehicle: Klucel (hydroxypropylcellulose) (HPC) 105 % of control

O=C1C2CCCCC2C(=O)N1C1=NC=NC2=NC=NC21 (stereo not drawn)
inactive: [12] 98 % of control | [13] 101 % of control | [14] 95 % of control

CSc1nc(N)c2c(=O)c(C(N)=O)cn(C3OC(CO)C(O)C3O)c2n1 (stereo not drawn)
inactive: dose: 100.0 mg/kg/injection, schedule: Q01DX005 (ip), vehicle: saline 95 % of control | dose: 200.0 mg/kg/injection, schedule: Q01DX005 (ip), vehicle: saline 93 % of control

CCCCC(CC)CC1CCCCC1O (stereo not drawn)
inactive: [6] 95 % of control | [7] 97 % of control | [8] 93 % of control | [9] 96 % of control | [11] 96 % of control

O=C(Nc1ccc(F)cc1)c1ccc(Cl)cc1Cl
inactive: [22] 93 % of control | [17] 97 % of control | [23] 95 % of control | [19] 107 % of control | [24] 88 % of control | [21] 100 % of control

COC(=O)C1CC(=O)N(Cc2ccccc2)C1 (stereo not drawn)
inactive: dose: 100.0 mg/kg/injection, schedule: Q04DX002 (ip), vehicle: Klucel (hydroxypropylcellulose) (HPC) 89 % of control | dose: 200.0 mg/kg/injection, schedule: Q04DX002 (ip), vehicle: Klucel (hydroxypropylcellulose) (HPC) 100 % of control | dose: 400.0 mg/kg/injection, schedule: Q04DX002 (ip), vehicle: Klucel (hydroxypropylcellulose) (HPC) 92 % of control

Cc1cc(Sc2ccccc2)c2c(C)ccc(C(C)C)cc1-2
inactive: [1] 95 % of control | [2] 97 % of control | [3] 95 % of control
